Experimental data as given in BindingDB's records for doi:10.1016/j.bmcl.2015.11.049 (Genomics Institute of The Novartis Research Foundation, 2016).
pIC50: −log10 of the molar value.

Key:
[1] = Inhibition of […] (unknown origin) expressed in mouse BaF3 cells assessed as reduction in cell proliferation incubated for 2 to 3 days by Bright-Glo luciferase assay
[2] = Inhibition of PDK1 (unknown origin)
[3] = Inhibition of […] (unknown origin) expressed in human KARPAS-299 cells assessed as reduction in cell growth
[4] = Inhibition of Tel fused InsR (unknown origin) expressed in mouse BaF3 cells assessed as reduction in cell proliferation incubated for 2 to 3 days by Bright-Glo luciferase assay

Row | SMILES | pIC50 [1] | pIC50 [2] | pIC50 [3] | pIC50 [4]
1 | Cc1cc(Nc2nc(Nc3ccccc3S(=O)(=O)C(C)C)c3cccnc3n2)c(OC(C)C)cc1C1CCNCC1 | 5.50 | – | – | –
2 | Cc1cc(Nc2cc(Nc3ccccc3S(=O)(=O)C(C)C)c3cc[nH]c3n2)c(OC(C)C)cc1C1CCN(C)CC1 | 5.85 | – | 5.14 | –
3 | Cc1cc2c(Nc3ccccc3S(=O)(=O)C(C)C)nc(Nc3cc(C)c(C4CCN(C)CC4)cc3OC(C)C)nc2[nH]1 | 5.89 | – | – | –
4 | Cc1cc(Nc2nc(Nc3ccccc3S(=O)(=O)C(C)C)c3ccccc3n2)c(OC(C)C)cc1C1CCN(C)CC1 | 5.97 | – | – | –

The next compounds have a higher pIC50 [1] than those just listed; values first:

Row | pIC50 [1] | pIC50 [2] | pIC50 [3] | pIC50 [4] | SMILES
5 | 7.48 | – | – | – | Cc1cc(Nc2nc(Nc3ccccc3S(=O)(=O)C(C)C)c3cn[nH]c3n2)c(OC(C)C)cc1C1CCNCC1
6 | 7.70 | < 5.00 | 7.59 | 6.37 | Cc1cc(Nc2nc(Nc3ccccc3S(=O)(=O)C(C)C)c3c(C)[nH]nc3n2)c(OC(C)C)cc1C1CCN(C)CC1 [US8592432, 34]
7 | 7.33 | – | – | – | Cc1cc(Nc2nc(Nc3ccccc3S(=O)(=O)C(C)C)c3cc[nH]c3n2)c(OC(C)C)cc1C1CCNCC1
8 | 6.82 | – | – | – | Cc1cc(Nc2nc(Nc3ccccc3S(=O)(=O)C(C)C)c3c(N)n[nH]c3n2)c(OC(C)C)cc1C1CCN(C)CC1
9 | 7.89 | – | – | – | Cc1cc(Nc2nc(Nc3ccccc3S(=O)(=O)C(C)C)c3cn[nH]c3n2)c(OC(C)C)cc1C1CCN(C)CC1
